Tests used:
[1] = biological target: T1, Human 11β HSD1 (Homo sapiens, UniProt P28845); experiment: 11β HSD1 cortisol radioimmunoassay (RIA), human hepatic microsomes; assay type: biochemical; conditions: 10 μM compound; typical sd ± 5%, N=2
T1 construct: human hepatic microsomes were obtained from XenoTech, product H0610/Lot 0210078; tissue XenoTech H0610/Lot 0210078; host or cells: human liver (hepatic microsomes)
Experimental: Standard Operating Procedure for the 11β-Hydroxysteroid Dehydrogenase Type 1 cortisol Radioimmunoassay (11β HSD1 Cortisol RIA).
Prepare 10 mM stock solutions in 100% DMSO at 100 times the required assay concentration. Dilute into assay buffer 1 in 25. Also dilute neat DMSO 1 in 25 into assay buffer for controls.
Dilute this 1 in 50 into assay buffer.
Mix these 3 solutions 1:1:1 to make a solution of sufficient volume for 25 μl additions to each sample.
Dilute stock 20 mg/ml solution 1 in 100 with assay buffer.
Dilute stock antibody solution to 17 μg/ml in antibody binding buffer.
To a u-bottom polypropylene 96 well plate add:
25 μl compound dilution or diluted DMSO to controls, NSB's and blanks
10 μl […] in DMSO (enzyme stop solution) to blanks
25 μl substrate mixture to all samples
50 μl diluted microsomes to all samples
Incubate plate for 30 min at 37° C. shaking
Add 10 μl enzyme stop solution to all wells except the blanks
Add 100 μl antibody solution to all wells except the NSB's, add antibody binding buffer to these wells
Incubate at 37° C. for 1 h
Add 50 μl/well charcoal solution and mix with an 8-channel pipette (4-5 aspirations)
Centrifuge at 4° C., 2000×g for 15 min
Transfer 100 μl supernatant into an Optiplate, also add 25 μl substrate mixture to 2 empty wells to indicate counting efficiency
Add 200 μl Microscint-40 to all wells and count on a Topcount
The 11β HSD1 enzyme assay was carried out following the standard operating procedure described above in u-bottom polypropylene 96 well plates or 1.5 ml Eppendorf tubes as indicated for each experiment. Subsequent to stopping the enzyme reaction, 100 μl antibody prepared in buffer 3 unless otherwise indicated was added to test samples and 100 μl buffer 3 was added to the NSB samples. […] Aliquots of the supernatant (100 μl) were transferred to an Optiplate and counted on the Topcount in 150-200 μl Microscint 40. In some experiments, aliquots of supernatant were transferred to scintillation vials and counted on the Tricarb LSC in 5 ml Ultima Gold scintillant.

T1 sequence (P28845 whole entry): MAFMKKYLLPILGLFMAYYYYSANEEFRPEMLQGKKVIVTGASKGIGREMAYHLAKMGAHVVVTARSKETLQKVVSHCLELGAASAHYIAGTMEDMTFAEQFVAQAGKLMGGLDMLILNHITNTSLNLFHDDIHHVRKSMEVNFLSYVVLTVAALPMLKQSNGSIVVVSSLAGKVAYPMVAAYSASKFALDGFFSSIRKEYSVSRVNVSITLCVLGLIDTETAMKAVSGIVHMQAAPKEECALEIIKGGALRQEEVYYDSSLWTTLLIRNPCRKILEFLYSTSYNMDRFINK

For `CCCc1ccc(S(=O)(=O)NN2CCN(C)CC2)cc1` [STX551, N-(4-Methylpiperazin-1-yl)-4-propylbenzenesulfonamide], the inhibition at 10 µM [1] was > 35% and the melting point was 153 to 154 °C.

For `CCCc1ccc(S(=O)(=O)NCCc2ncc[nH]2)cc1` [STX578, N-[2-(4H-Imidazol-2-yl)-ethyl]-4-propylbenzenesulfonamide], the inhibition at 10 µM [1] was > 35%.

In the case of `CCCc1ccc(S(=O)(=O)NN2CCOCC2)cc1` [STX586, N-Morpholin-4-yl-4-propyl-benzenesulfonamide], the inhibition at 10 µM [1] is reported as > 35% and the melting point is reported as 150 to 152 °C.

Source: patent US20070244108A1 (priority 2004, published 2007)
